Reference: patent US10525103B2, “Combined use of a vector encoding a modified receptor and its exogenous agonist in the treatment of seizures” (UCL BUSINESS LTD, priority 2014, dated 2020)
Read-outs that look alike come from different tables or passages of the source.

Assays:
[1] = target: hM3Dq (Homo sapiens, UniProt P20309, A239G/Y149C); conditions: cited from earlier work
[2] = test system: human muscarinic acetylcholine receptors mutated to DREADDs; conditions: cited from earlier work
[3] = target: T1, hM4Di (Homo sapiens, UniProt P08173, A203G/Y113C); experiment: Overview of hM4Di/CNO treatment in in vivo models of focal epilepsy
T1 sequence (P08173 1-479 Y113C/A203G): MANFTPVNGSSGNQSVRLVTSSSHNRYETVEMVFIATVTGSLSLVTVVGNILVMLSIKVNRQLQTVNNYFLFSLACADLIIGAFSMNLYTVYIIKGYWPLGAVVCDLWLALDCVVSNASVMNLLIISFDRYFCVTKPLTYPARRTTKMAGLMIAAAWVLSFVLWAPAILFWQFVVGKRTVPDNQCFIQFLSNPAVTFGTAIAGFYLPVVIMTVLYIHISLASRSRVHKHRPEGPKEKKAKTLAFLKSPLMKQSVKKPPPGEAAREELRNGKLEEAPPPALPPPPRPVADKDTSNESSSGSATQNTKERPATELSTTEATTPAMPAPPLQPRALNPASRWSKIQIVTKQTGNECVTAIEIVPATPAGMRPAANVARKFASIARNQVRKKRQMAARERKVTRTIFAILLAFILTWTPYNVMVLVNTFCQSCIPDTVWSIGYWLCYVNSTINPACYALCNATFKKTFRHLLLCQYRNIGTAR

[4] = target: T1, hM4Di; assay type: in vivo; parameters: host or cells: rat (Sprague-Dawley) primary motor cortex neurons transduced in vivo with AAV5, Camk2a promoter
[5] = target: T1, hM4Di; parameters: host or cells: rat (Sprague-Dawley) primary motor cortex neurons transduced in vivo with AAV5, Camk2a promoter; conditions: in vivo
[6] = human, in vivo; cited from earlier work
[7] = cited from earlier work
[8] = target: T1, hM4Di; assay type: in vivo; parameters: host or cells: rat (Sprague-Dawley) primary motor cortex neurons transduced in vivo with AAV5, Camk2a promoter; conditions: tetanus toxin model; CNO 1 mg/kg i.p. twice at 2-hour interval, 3.5 hour window, vs vehicle; P=0.028 Wilcoxon

hM3Dq, sequence (P20309 whole entry Y149C/A239G): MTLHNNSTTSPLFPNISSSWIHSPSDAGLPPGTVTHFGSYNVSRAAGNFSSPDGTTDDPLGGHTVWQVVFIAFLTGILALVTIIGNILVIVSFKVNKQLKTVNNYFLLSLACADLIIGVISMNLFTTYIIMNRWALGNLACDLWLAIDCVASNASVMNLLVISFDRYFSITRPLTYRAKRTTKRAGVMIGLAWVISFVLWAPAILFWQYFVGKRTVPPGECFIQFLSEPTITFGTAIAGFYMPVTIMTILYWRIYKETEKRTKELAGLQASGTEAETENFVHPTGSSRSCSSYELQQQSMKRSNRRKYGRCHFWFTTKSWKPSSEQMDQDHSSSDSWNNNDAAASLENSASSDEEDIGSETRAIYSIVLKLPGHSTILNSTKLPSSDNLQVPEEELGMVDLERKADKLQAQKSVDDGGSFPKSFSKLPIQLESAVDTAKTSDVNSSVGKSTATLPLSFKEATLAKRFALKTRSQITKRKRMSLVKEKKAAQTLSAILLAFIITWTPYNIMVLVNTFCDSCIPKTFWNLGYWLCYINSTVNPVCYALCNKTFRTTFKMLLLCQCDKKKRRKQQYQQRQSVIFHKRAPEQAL

SMILES | binding to hM3Dq [1] | activation of DREADD receptors [2] | duration of seizure suppression / CNO present in the brain ([3]; following a single intraperitoneal injection) [min] | tolerability of the treatment ([3]; hM4Di expression plus systemic CNO) | time to significant reduction in seizure severity after CNO administration ([4]; picrotoxin (FIG. 2e)) [min] | attenuation of IF activity ([4]; picrotoxin, IF activity correlated with more severe motor seizures) | electrographic discharges ([4]; rats with hM4Di AAV in M1, CNO i.p. immediately after focal picrotoxin, vs vehicle) | electrographic and motor convulsions [5] | mean 4-14 Hz power [5] | mean frequency of negative deflections in the EEG [5] | number of IF runs that correlate with severe motor seizures [5] | pilocarpine-triggered seizures [5] | time to significant reduction in seizure severity after CNO administration [5] [min] | half-life [6] [h] | duration of effect on neurons transduced with hM4Di or its excitatory analog [7] | time to full clearance ([7]; rat, in vivo) [h] | coastline [8] | frequency of epileptiform bursts [8] | high-frequency power [8]
CN1CCN(C2=Nc3ccccc3Cc3ccccc32)CC1 [perlapine] | binds |  |  |  |  |  |  |  |  |  |  |  |  |  |  |  |  |  | 
C[N+]1([O-])CCN(C2=Nc3cc(Cl)ccc3Nc3ccccc32)CC1 [CNO, clozapine-N-oxide] |  | readily activated | 45 to 60 | well tolerated | ≤ 10 | especially marked | attenuated | substantially reduced | significant decrease | significant decrease | significant decrease | profoundly suppressed | ≤ 10 | 7 to 8 | at least 90 minutes | ≤ 12 | significantly attenuated | significantly attenuated | significantly attenuated
